Structures can show the parent of a compound that is named as a salt.

These results are taken from patent US10179767B2 (GENENTECH, INC., priority 2015, dated 2019).

The target of the assay is T1, hNav1.7 (Homo sapiens, UniProt Q15858).
T1 construct: expressed in transfected cells
T1 sequence (Q15858 whole entry): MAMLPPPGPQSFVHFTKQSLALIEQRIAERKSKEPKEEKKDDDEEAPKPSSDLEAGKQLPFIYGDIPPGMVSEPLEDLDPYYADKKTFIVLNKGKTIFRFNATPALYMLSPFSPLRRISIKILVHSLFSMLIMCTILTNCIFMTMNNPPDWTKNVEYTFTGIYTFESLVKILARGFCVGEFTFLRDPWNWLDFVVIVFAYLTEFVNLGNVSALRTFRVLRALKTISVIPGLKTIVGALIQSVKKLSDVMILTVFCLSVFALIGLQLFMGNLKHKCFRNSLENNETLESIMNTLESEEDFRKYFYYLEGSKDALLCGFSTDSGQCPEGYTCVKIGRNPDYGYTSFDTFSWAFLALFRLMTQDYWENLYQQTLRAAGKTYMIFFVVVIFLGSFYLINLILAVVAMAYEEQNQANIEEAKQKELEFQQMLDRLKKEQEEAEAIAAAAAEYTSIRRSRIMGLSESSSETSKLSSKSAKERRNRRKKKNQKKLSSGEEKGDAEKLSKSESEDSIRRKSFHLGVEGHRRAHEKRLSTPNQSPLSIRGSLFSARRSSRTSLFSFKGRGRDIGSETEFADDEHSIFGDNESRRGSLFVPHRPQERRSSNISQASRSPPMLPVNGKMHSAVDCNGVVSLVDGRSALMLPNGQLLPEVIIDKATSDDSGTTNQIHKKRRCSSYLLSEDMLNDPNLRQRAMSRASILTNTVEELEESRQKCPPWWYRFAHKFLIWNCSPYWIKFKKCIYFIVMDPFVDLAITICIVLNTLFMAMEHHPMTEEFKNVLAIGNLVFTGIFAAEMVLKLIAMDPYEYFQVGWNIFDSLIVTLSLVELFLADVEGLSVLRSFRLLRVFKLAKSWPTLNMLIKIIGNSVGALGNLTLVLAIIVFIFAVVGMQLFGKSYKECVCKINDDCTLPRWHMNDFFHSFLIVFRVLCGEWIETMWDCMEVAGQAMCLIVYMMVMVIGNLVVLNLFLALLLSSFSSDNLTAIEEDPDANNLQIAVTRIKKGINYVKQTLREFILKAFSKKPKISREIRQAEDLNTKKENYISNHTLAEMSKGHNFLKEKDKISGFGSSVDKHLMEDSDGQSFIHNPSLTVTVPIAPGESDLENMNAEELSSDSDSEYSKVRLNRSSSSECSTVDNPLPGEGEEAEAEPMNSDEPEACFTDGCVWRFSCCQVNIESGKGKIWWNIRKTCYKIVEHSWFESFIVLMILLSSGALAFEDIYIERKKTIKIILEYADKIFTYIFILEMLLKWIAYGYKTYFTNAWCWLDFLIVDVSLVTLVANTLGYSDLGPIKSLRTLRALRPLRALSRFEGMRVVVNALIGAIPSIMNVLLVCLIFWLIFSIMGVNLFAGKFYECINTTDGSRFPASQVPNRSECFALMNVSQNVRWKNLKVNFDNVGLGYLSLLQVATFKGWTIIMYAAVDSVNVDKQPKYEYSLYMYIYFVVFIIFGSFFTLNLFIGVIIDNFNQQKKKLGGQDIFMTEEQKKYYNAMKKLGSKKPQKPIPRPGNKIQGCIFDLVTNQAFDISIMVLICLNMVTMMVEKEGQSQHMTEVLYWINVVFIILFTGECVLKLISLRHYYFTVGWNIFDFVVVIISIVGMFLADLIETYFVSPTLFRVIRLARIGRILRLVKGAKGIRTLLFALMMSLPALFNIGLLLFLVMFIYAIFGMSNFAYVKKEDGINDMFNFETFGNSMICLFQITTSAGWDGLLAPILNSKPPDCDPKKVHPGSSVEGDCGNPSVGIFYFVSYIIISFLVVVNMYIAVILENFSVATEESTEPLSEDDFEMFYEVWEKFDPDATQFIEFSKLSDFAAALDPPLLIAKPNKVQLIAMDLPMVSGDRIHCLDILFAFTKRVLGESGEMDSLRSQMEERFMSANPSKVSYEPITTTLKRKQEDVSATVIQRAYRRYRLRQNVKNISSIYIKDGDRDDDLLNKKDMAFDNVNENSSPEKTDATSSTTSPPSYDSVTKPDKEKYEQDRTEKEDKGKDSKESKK
T1 sequence (Q07699 19-218 partner): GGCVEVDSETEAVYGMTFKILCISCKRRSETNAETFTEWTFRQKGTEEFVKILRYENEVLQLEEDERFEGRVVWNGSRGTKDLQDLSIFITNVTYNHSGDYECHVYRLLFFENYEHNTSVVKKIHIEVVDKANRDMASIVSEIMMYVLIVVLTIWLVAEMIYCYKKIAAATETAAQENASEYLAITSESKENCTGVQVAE
As to the kind of experiment: Tritiated sulfonamide binding to membranes from cells expressing hNav1.7 and the β1 subunit (Nav 1.7 ligand binding assay, competitive). The conditions noted are these: competition with 100 pM [3H]compound, room temperature, 18 h. How it is done: Tritiated Sulfonamide Binding to Membranes Isolated from Cells that Heterologously Express hNav1.7 and the β1 Subunit
Preparation of membranes containing recombinantly expressed sodium channels: Frozen recombinant cell pellets were thawed on ice and diluted to 4 times the cell pellet weight with ice cold 50 mM Tris HCl, pH 7.4 buffer. The cell suspensions were homogenized on ice using a motorized glass dounce homogeniser. Homogenates were further diluted 8.4 times with ice cold 50 mM Tris HCl, pH 7.4 buffer and then centrifuged at 200×g at 4° C. for 15 min. The supernatants were collected and centrifuged at 10000×g at 4° C. for 50 min. The pellets were then re-suspended in 100 mM NaCl, 20 mM Tris HCl, pH 7.4 buffer containing 1% v/v protease inhibitors (Calbiochem) and re-homogenized on ice. The homogenized membranes were then processed through a syringe equipped with a 26 gauge needle. Protein concentrations were determined by Bradford Assay and the membranes were stored at −80° C.
Radioligand Binding Studies:
Saturation experiments. A competitive NaV1.7 inhibitor having a methyl group was tritiated. Three tritiums were incorporated in place of methyl hydrogens to generate [^3H]compound. Binding of this radioligand was preformed in 5 mL borosilicate glass test tubes at room temperature. Binding was initiated by adding membranes to increasing concentrations of [^3H]compound in 100 mM NaCl, 20 mM Tris HCl, pH 7.4 buffer containing 0.01% w/v bovine serum albumin (BSA) for 18 h. Non-specific binding was determined in the presence of 1 μM unlabelled compound. After 18 h, the reactants were filtered through GF/C glass fiber filters presoaked in 0.5% w/v polyethylene imine Filters were washed with 15 mL ice cold 100 mM NaCl, 20 mM Tris HCl, pH7.4 buffer containing 0.25% BSA to separate bound from free ligand. [^3H]compound bound to filters was quantified by liquid scintillation counting.
Competitive Binding Experiments:
Binding reactions were preformed in 96-well polypropylene plates at room temperature for 18 h. In 360 μL, membranes were incubated with 100 pM [^3H]compound and increasing concentrations of Test Compound. Non-specific binding was defined in the presence of 1 μM unlabelled compound. Reactions were transferred and filtered through 96-well glass fiber/C filter plates presoaked with 0.5% polyethylene imine. The filtered reactions were washed 5 times with 200 μL ice cold buffer containing 0.25% BSA. Bound radioactivity was determined by liquid scintillation counting. Data Analysis: For saturation experiments, non-specific binding was subtracted from total binding to provide specific binding and these values were recalculated in terms of pmol ligand bound per mg protein. Saturation curves were constructed and dissociation constants were calculated using the single site ligand binding model: Beq=(Bmax*X)/(X+Kd), where Beq is the amount of ligand bound at equilibrium, Bmax is the maximum receptor density, Kd is the dissociation constant for the ligand, and X is the free ligand concentration. For competition studies percent inhibition was determined and IC50 values were calculated using a 4 parameter logistic model (% inhibition=(A+((B−A)/(1+((x/C)⨣D)))) using XLfit, where A and B are the maximal and minimum inhibition respectively, C is the IC50 concentration and D is the (Hill) slope.
Consider `CS(=O)(=O)NC(=O)c1cc(C2CC2)c(OCC2CCN(Cc3cc(C(F)(F)F)cc(Cl)c3C#N)CC2)cc1F` [Example 3, 4-((1-(3-chloro-2-cyano-5-(trifluoromethyl)benzyl)piperidin-4-yl)methoxy)-5-cyclopropyl-2-fluoro-N-(methylsulfonyl)benzamide], for which the IC50 (in general, the concentration that gives 50% inhibition) came to 4.5 nM.

The compound `C[C@H](c1ccc(Cl)c(F)c1)N1CCC(COc2cc(F)c(C(=O)NS(C)(=O)=O)cc2C2CC2)CC1` (single isomer, unassigned) [Example 39] displayed an IC50 of 4.6 nM. Then `CS(=O)(=O)NC(=O)c1cc(C2CC2)c(OCC2(O)CCN(Cc3cc(Cl)cc(Cl)c3)CC2)cc1F` [Example 6, 5-Cyclopropyl-4-((1-(3,5-dichlorobenzyl)-4-hydroxypiperidin-4-yl)methoxy)-2-fluoro-N-(methylsulfonyl)benzamide], with 10 nM; and `C[C@@H](c1ccc(F)c(Cl)c1)N1CCC(F)(COc2cc(F)c(C(=O)NS(C)(=O)=O)cc2C2CC2)CC1` (single isomer, unassigned) [Example 26], with 4.7 nM; and `CS(=O)(=O)NC(=O)c1cc(C2CC2)c(OCC2(F)CCN(Cc3ccc(F)cc3Cl)CC2)cc1F` [Example 29, 4-((1-(2-Chloro-4-fluorobenzyl)-4-fluoropiperidin-4-yl)methoxy)-5-cyclopropyl-2-fluoro-N-(methylsulfonyl)benzamide], with 4.2 nM. `C[C@@H](c1cc(F)cc(Cl)c1)N1CCC(F)(COc2cc(F)c(C(=O)NS(C)(=O)=O)cc2C2CC2)CC1` (single isomer, unassigned) [Example 24]: the concentration for half-maximal inhibition (IC50) came out at 4.1 nM. Under `C[C@@H](c1cc(Cl)cc(Cl)c1)N1CCC(COc2cc(F)c(C(=O)NS(=O)(=O)C3(F)CC3)cc2C2CC2)CC1` [Example 57, (S)-4-((2-cyclopropyl-5-fluoro-4-(((1-fluorocyclopropyl)sulfonyl)carbamoyl)phenoxy)methyl)-1-(1-(3,5-dichlorophenyl)ethyl)piperidin-1-ium trifluoroacetate] stands 8.6 nM; under `COC1(COc2cc(F)c(C(=O)NS(=O)(=O)C3CC3)cc2C2CC2)CCN(Cc2cc(Cl)cc(Cl)c2)CC1` [Example 9, 5-Cyclopropyl-N-(cyclopropylsulfonyl)-4-((1-(3,5-dichlorobenzyl)-4-methoxypiperidin-4-yl)methoxy)-2-fluorobenzamide], 5.7 nM. `C[C@@H](c1cc(Cl)cc(Cl)c1)N1CCC(F)(COc2cc(F)c(C(=O)NS(=O)(=O)N3CCC3)cc2C2CC2)CC1` [Example 58, (S)—N-(azetidin-1-ylsulfonyl)-5-cyclopropyl-4-((1-(1-(3,5-dichlorophenyl)ethyl)-4-fluoropiperidin-4-yl)methoxy)-2-fluorobenzamide] returned an IC50 of 5.6 nM. Then `O=C(NS(=O)(=O)N1CCC1)c1cc(C2CC2)c(O[C@H]2CCCN(Cc3ccc(F)cc3Cl)C2)cc1F` [Example 41, (S)—N-(azetidin-1-ylsulfonyl)-4-((1-(2-chloro-4-fluorobenzyl)piperidin-3-yl)oxy)-5-cyclopropyl-2-fluorobenzamide], with 140 nM; and `CS(=O)(=O)NC(=O)c1cc(C2CC2)c(OCC2CCN([C@H](c3cc(Cl)cc(Cl)c3)C3COC3)CC2)cc1F` (single isomer, unassigned) [Example 34], with 9.9 nM; and `CCS(=O)(=O)NC(=O)c1cc(C2CC2)c(OCC2(OC)CCN(Cc3cc(Cl)cc(Cl)c3)CC2)cc1F` [Example 10, 5-Cyclopropyl-4-((1-(3,5-dichlorobenzyl)-4-methoxypiperidin-4-yl)methoxy)-N-(ethylsulfonyl)-2-fluorobenzamide], with 9 nM. Under `C[C@@H](c1ccc(Cl)c(Cl)c1)N1CCC(F)(COc2cc(F)c(C(=O)NS(C)(=O)=O)cc2C2CC2)CC1` (single isomer, unassigned) [Example 22] stands 5.6 nM; under `CC(C)(C#N)[C@@H](c1cc(Cl)cc(Cl)c1)N1CCC(COc2cc(F)c(C(=O)NS(C)(=O)=O)cc2C2CC2)CC1` (single isomer, unassigned) [Example 12], 3.9 nM. Under `CCS(=O)(=O)NC(=O)c1cc(C2CC2)c(OCC2CCN([C@@H](C)c3cc(Cl)cc(Cl)c3F)CC2)cc1F` (single isomer, unassigned) [Example 32] stands 5.1 nM; under `CS(=O)(=O)NC(=O)c1cc(C2CC2)c(OCC2(F)CCN(Cc3ccc(F)c(Cl)c3)CC2)cc1F` [Example 31, 4-((1-(3-Chloro-4-fluorobenzyl)-4-fluoropiperidin-4-yl)methoxy)-5-cyclopropyl-2-fluoro-N-(methylsulfonyl)benzamide], 5.3 nM. `C[C@H](c1ccc(F)c(Cl)c1)N1CCC(F)(COc2cc(F)c(C(=O)NS(C)(=O)=O)cc2C2CC2)CC1` (single isomer, unassigned) [Example 27] gave a half-maximal inhibitory concentration (IC50) of 8.6 nM.

`CC(C)Oc1ncc(CN2CCC(F)(COc3cc(F)c(C(=O)NS(=O)(=O)C4CC4)cc3C3CC3)CC2)cc1Cl` [Example 56, 4-((1-((5-chloro-6-isopropoxypyridin-3-yl)methyl)-4-fluoropiperidin-4-yl)methoxy)-5-cyclopropyl-N-(cyclopropylsulfonyl)-2-fluorobenzamide] had an IC50 of 6.8 nM. The IC50 values of the last two compounds are within 1.5-fold of each other.

In turn, `C[C@@H](c1cc(Cl)cc(Cl)c1C#N)N1CCC(COc2cc(F)c(C(=O)NS(C)(=O)=O)cc2C2CC2)CC1` (single isomer, unassigned) [Example 2] showed a half-maximal inhibitory concentration (IC50) of 5.5 nM.

`C[C@H](c1ccc(Cl)c(Cl)c1)N1CCC(F)(COc2cc(F)c(C(=O)NS(C)(=O)=O)cc2C2CC2)CC1` (single isomer, unassigned) [Example 23] came in with an IC50 of 6.4 nM.

Take `CS(=O)(=O)NC(=O)c1cc(C2CC2)c(OCC2CCN(Cc3cc(Cl)cc(C(F)(F)F)n3)CC2)cc1F` [Example 53, 4-((1-((4-chloro-6-(trifluoromethyl)pyridin-2-yl)methyl)piperidin-4-yl)methoxy)-5-cyclopropyl-2-fluoro-N-(methylsulfonyl)benzamide]: the IC50 was determined as 9.4 nM.

`CC(c1ncc(Cl)cc1Cl)N1CCC(COc2cc(F)c(C(=O)NS(C)(=O)=O)cc2C2CC2)CC1` (centres unmarked) [Example 44, 5-cyclopropyl-4-((1-(1-(3,5-dichloropyridin-2-yl)ethyl)piperidin-4-yl)methoxy)-2-fluoro-N-(methylsulfonyl)benzamide] gave an IC50 of 18 nM. Then `C[C@H](c1ccc(F)cc1Cl)N1CCC(F)(COc2cc(F)c(C(=O)NS(C)(=O)=O)cc2C2CC2)CC1` (single isomer, unassigned) [Example 19], with 6 nM; and `COc1c(Cl)cc(Cl)cc1[C@@H](C)N1CCC(COc2cc(F)c(C(=O)NS(C)(=O)=O)cc2C2CC2)CC1` (single isomer, unassigned) [Example 15], with 5.1 nM. `CC(c1cc(C(F)(F)F)cc(C2CC2)n1)N1CCC(COc2cc(F)c(C(=O)NS(=O)(=O)C3CC3)cc2C2CC2)CC1` (centres unmarked) [Example 51, 5-cyclopropyl-4-((1-(1-(6-cyclopropyl-4-(trifluoromethyl)pyridin-2-yl)ethyl)piperidin-4-yl)methoxy)-N-(cyclopropylsulfonyl)-2-fluorobenzamide] had a concentration for half-maximal inhibition (IC50) of 11 nM.

With `CC(C)(C#N)[C@H](c1cc(Cl)cc(Cl)c1)N1CCC(COc2cc(F)c(C(=O)NS(C)(=O)=O)cc2C2CC2)CC1` (single isomer, unassigned) [Example 11], the IC50 is 4.2 nM. Compound `CS(=O)(=O)NC(=O)c1cc(C2CC2)c(OCC2(F)CCN(Cc3ccc(Cl)cc3Cl)CC2)cc1F` [Example 20, 5-Cyclopropyl-4-((1-(2,4-dichlorobenzyl)-4-fluoropiperidin-4-yl)methoxy)-2-fluoro-N-(methylsulfonyl)benzamide] yielded a half-maximal inhibitory concentration (IC50) of 3.5 nM. Under `CS(=O)(=O)NC(=O)c1cc(C2CC2)c(OCC2(F)CCN(Cc3ncc(C(F)(F)F)cc3Cl)CC2)cc1F` [Example 42, 4-((1-((3-chloro-5-(trifluoromethyl)pyridin-2-yl)methyl)-4-fluoropiperidin-4-yl)methoxy)-5-cyclopropyl-2-fluoro-N-(methylsulfonyl)benzamide] stands 19 nM; under `C[C@@H](c1ccc(Cl)c(F)c1)N1CCC(COc2cc(F)c(C(=O)NS(C)(=O)=O)cc2C2CC2)CC1` (single isomer, unassigned) [Example 40], 6.6 nM.
